Where a name gives a salt, the structure may show the parent alone.
Row | Structure (SMILES) | melting point [°C]
1 | COc1ccc(-c2ccncc2)cc1-c1cccc(Cl)c1 (as salt: hydrochloride) [Example 7, 4-[2-(Methoxy)-3′-(chloro)biphenyl-5-yl]pyridine] | 156 to 210
2 | COc1ccc(-c2ccncc2)cc1-c1cccc(Oc2ccccc2)c1 (as salt: hydrochloride) [Example 9, 4-[2-(Methoxy)-3′-(phenoxy)biphenyl-5-yl]pyridine] | 184 to 204
3 | COc1ccc(-c2ccncc2)cc1-c1ccc(Oc2ccccc2)cc1 (as salt: hydrochloride) [Example 10, 4-[2-(Methoxy)4′-(phenoxy)biphenyl-5-yl]pyridine] | 173 to 218
4 | COc1ccc(-c2ccncc2)cc1-c1ccc(F)c(Cl)c1 (as salt: hydrochloride) [Example 11, 4-[2-(Methoxy)-3′-(chloro)4′-(fluoro)biphenyl-5-yl]pyridine] | 115
5 | COc1ccc(-c2ccncc2)cc1-c1ccc2nonc2c1 [Example 5, 4-[4-Methoxy-3-(5-benzofurazanyl)phenyl]pyridine] | 187 to 192
6 | CCOC(=O)c1ccc(-c2ccc(OC)c(-c3cccc([N+](=O)[O-])c3)c2)cc1 [Example 13, 4′-Methoxy-3′-(3-nitrophenyl)-[1,1′-biphenyl]-4-carboxylic acid, ethyl ester] | 106 to 108
7 | CCOC(=O)c1ccc(-c2ccc(OC)c(-c3cccc([N+](=O)[O-])c3)c2)cc1C [Example 15, 4′-Methoxy-3-methyl-3′-(3-nitrophenyl)-[1,1′-biphenyl]-4-carboxylic acid, ethyl ester] | 88 to 90
8 | CCOC(=O)c1ccc(-c2ccc(OC)c(-c3ccc4nonc4c3)c2)cc1 [Example 16, 3′-(5-Benzofurazanyl)-4′-methoxy-[1,1′-biphenyl]-4-carboxylic acid, ethyl ester] | 166 to 168
9 | COc1ccc(-c2ccc(C(=O)OCC(C)(C)C)cc2)cc1-c1ccc2nonc2c1 [Example 17, 3′-(5-Benzofurazanyl)-4′-methoxy-[1,1′-biphenyl]-4-carboxylic acid, 2,2-dimethylpropyl ester] | 131 to 136
10 | COc1ccc(-c2ccc(C(=O)O)cc2)cc1-c1ccc2nonc2c1 [Example 21, 3′-(5-Benzofurazanyl)-4′-methoxy-[1,1′-biphenyl]-4-carboxylic acid] | > 300
11 | COc1ccc(-c2ccc(C(=O)O)cc2)cc1-c1cccc(Cl)c1 [Example 22, 4′-Methoxy-3′-(3-chlorophenyl)-[1,1′-biphenyl]-4-carboxylic acid] | 250 to 252
12 | COc1ccc(-c2ccc(C(=O)O)cc2)cc1-c1cccc(C#N)c1 [Example 23, 4′-Methoxy-3′-(3-cyanophenyl)-[1,1′-biphenyl]-4-carboxylic acid] | 280 to 285
13 | COc1ccc(-c2ccc3nccn3c2)cc1-c1ccc2nonc2c1 [Example 28, 6-[4-Methoxy-3-(5-benzofurazanyl)phenyl]imidazo[1,2-a]pyridine] | 190 to 196

The remaining lines, values ahead:

Row | melting point [°C] | Structure (SMILES)
14 | 87 to 89 | CCOC(=O)c1cccc(-c2ccc(OC)c(-c3cccc([N+](=O)[O-])c3)c2)c1 [Example 14, 4′-Methoxy-3′-(3-nitrophenyl)-[1,1′-biphenyl]-3-carboxylic acid, ethyl ester]
15 | 223 to 228 | COc1ccc(-c2cccc(C(=O)O)c2)cc1-c1cccc([N+](=O)[O-])c1 [Example 19, 4′-Methoxy-3′-(3-nitrophenyl)-[1,1′-biphenyl]-3-carboxylic acid]
16 | 278 to 281 | COc1ccc(-c2ccc(C(=O)O)c(C)c2)cc1-c1cccc([N+](=O)[O-])c1 [Example 20, 4′-Methoxy-3-methyl-3′-(3-nitrophenyl)-[1,1′-biphenyl]-4-carboxylic acid]
17 | 201 to 205 | COc1ccc(-c2ccc(C(N)=O)cc2)cc1-c1cccc([N+](=O)[O-])c1 [Example 24, 4′-Methoxy-3′-(3-nitrophenyl)-[1,1′-biphenyl]-4-carboxamide]
18 | 118 to 120 | COc1ccc(-c2cccc(C(N)=O)c2)cc1-c1cccc([N+](=O)[O-])c1 [Example 25, 4′-Methoxy-3′-(3-nitrophenyl)-[1,1′-biphenyl]-3-carboxamide]
19 | 179 to 184 | COc1ccc(-c2ccc(C(N)=O)c(C)c2)cc1-c1cccc([N+](=O)[O-])c1 [Example 26, 4′-Methoxy-3-methyl-3′-(3-nitrophenyl)-[1,1′-biphenyl]-4-carboxamide]
20 | 171 to 172 | CNC(=O)c1ccc(-c2ccc(OC)c(-c3cccc([N+](=O)[O-])c3)c2)cc1 [Example 27, N-Methyl-4′-methoxy-3′-(3-nitrophenyl)-[1,1′-biphenyl]-4-carboxamide]

— patent publication US6410547B1, “Phenylpyridine derivatives useful as phosphodiesterase inhibitors” (Novartis AG, priority 1996, dated 2002)
